The target in the test is recombinant DYRK1A kinase (Homo sapiens, UniProt Q13627). The experiment in a line: DYRK1A kinase assay (Ser/Thr 18 peptide Z-lyte FRET). Type of test: biochemical. The settings on record: DYRK1A 0.25 μg/mL, ATP 15 μM, Ser/Thr peptide 18 4 μM, one hour at room temperature, 11-point dose-response from 10 μM. As for the experimental part:
Representative compounds were screened using the assay procedure for DYRK1A kinase activity as described below.
Each compound was dissolved in DMSO as a 10 mM stock and used to prepare compound source plates. Serial dilution (1:3, 11-point dose-response curves from 10 μM to 0.00016 μM) and compound transfer was performed using the ECHO 550 (Labcyte, Sunnyvale, CA) into 1536-well black-walled round bottom plates (Corning).
The DYRK1A kinase assay was run using the Ser/Thr 18 peptide Z-lyte assay kit according to manufacturer's instructions (Life Technologies—a Division of Thermo-Fisher). This is a non-radioactive assay using fluorescence resonance energy transfer (FRET) between coumarin and fluorescein to detect kinase activity which is represented as a ratio of coumarin emission/fluorescein emission.
Briefly, recombinant DYRK1A kinase, ATP and Ser/Thr peptide 18 were prepared in 1× Kinase buffer to final concentrations of 0.25 μg/mL, 15 μM, and 4 μM respectively. The mixture was allowed to incubate with the representative compounds for one hour at room temperature. All reactions were performed in duplicate. Unphosphorylated (“0% Control”) and phosphorylated (“100% control”) forms of Ser/Thr 18 served as control reactions. Additionally, an 11-point dose-response curve of Staurosporine (1 uM top) was run to serve as a positive compound control.
After incubation, Development Reagent A was diluted in Development Buffer then added to the reaction and allowed to further incubate for one hour at room temperature. The plate was read at Ex 400 Em 455 to detect the coumarin signal and Ex 400 Em 520 to measure the signal (EnVision Multilabel Plate Reader, PerkinElmer).
The Emission ratio (Em) was calculated as a ratio of the coumarin (C) emission signal (at 445 nm)/Fluorescein (F) emission signal (at 520 nm). The percent phosphorylation was then calculated using the following formula: [1−((Em ratio×F100%)−C100%)/((C0%−C100%)+(Em ratio×(F100%−F0%)))]. Dose-response curves were generated, and inhibitory concentration (IC50) values were calculated using non-linear regression curve fit in the Dotmatics' Studies Software (Bishops Stortford, UK).

In general, IC50 refers to the midpoint of a concentration-inhibition curve. Take `Cc1nc2ccc(-c3ccn4nc(N[C@@H]5CCN(C6COC6)C[C@@H]5F)nc(N)c34)nc2n1CCF` [Compound 141, N^2-((3S,4R)-3-Fluoro-1-(oxetan-3-yl)piperidin-4-yl)-5-(3-(2-fluoroethyl)-2-methyl-3H-imidazo[4,5-b]pyridin-5-yl)pyrrolo[2,1-f][1,2,4]triazine-2,4-diamine]: the IC50 is 3.4 nM. With `CNc1nc(N[C@@H]2CCN(S(C)(=O)=O)CC2(F)F)nn2ccc(-c3ccc4nccn4n3)c12` [Compound 48, (R)—N2-(3,3-Difluoro-1-(methylsulfonyl)piperidin-4-yl)-5-(imidazo[1,2-b]pyridazin-6-yl)-N4-methylpyrrolo[2,1-f][1,2,4]triazine-2,4-diamine], the IC50 was found to be 2.2 nM.

`Nc1nc(N[C@@H]2CCN(C3COC3)CC2(F)F)nn2ccc(-c3ccc4ncn(CC(F)(F)F)c4n3)c12` [Compound 131, (R)—N^2-(3,3-Difluoro-1-(oxetan-3-yl)piperidin-4-yl)-5-(3-(2,2,2-trifluoroethyl)-3H-imidazo[4,5-b]pyridin-5-yl)pyrrolo[2,1-f][1,2,4]triazine-2,4-diamine]: the IC50 was 4.7 nM. The same measure for `C[C@]1(O)CC[C@H](Nc2nc(N)c3c(-c4ccc5ncn(CC(F)(F)F)c5n4)ccn3n2)CC1` [Compound 123, (1r,4r)-4-((4-Amino-5-(3-(2,2,2-trifluoroethyl)-3H-imidazo[4,5-b]pyridin-5-yl)pyrrolo[2,1-f][1,2,4]triazin-2-yl)amino)-1-methylcyclohexan-1-ol]: 1.9 nM; for `CNc1nc(N[C@@H]2CCN(C)C[C@@H]2F)nn2ccc(-c3ccc4nnn(CC(F)F)c4n3)c12` [Compound 272, 5-(3-(2,2-Difluoroethyl)-3H-[1,2,3]triazolo[4,5-b]pyridin-5-yl)-N^2-((3S,4R)-3-fluoro-1-methylpiperidin-4-yl)-N^4-methylpyrrolo[2,1-f][1,2,4]triazine-2,4-diamine]: 5 nM; for `CNc1nc(N[C@H]2CCN(CCF)C[C@H]2F)nn2ccc(-c3ccc4nnn(CC(F)F)c4n3)c12` [Compound 274, 5-(3-(2,2-Difluoroethyl)-3H-[1,2,3]triazolo[4,5-b]pyridin-5-yl)-N^2-((3R,4S)-3-fluoro-1-(2-fluoroethyl)piperidin-4-yl)-N^4-methylpyrrolo[2,1-f][1,2,4]triazine-2,4-diamine]: 3.6 nM. Under `Cc1nc2ccc(-c3c(F)cn4nc(N[C@H]5CCN(C6COC6)C[C@H]5F)nc(N)c34)nc2n1CCF` [Compound 145, 6-Fluoro-N2-((3R,4S)-3-fluoro-1-(oxetan-3-yl)piperidin-4-yl)-5-(3-(2-fluoroethyl)-2-methyl-3H-imidazo[4,5-b]pyridin-5-yl)pyrrolo[2,1-f][1,2,4]triazine-2,4-diamine] stands 1.7 nM; under `CN1CC[C@@H](Nc2nc(N)c3c(-c4ccc5nccn5n4)c(F)cn3n2)C(F)(F)C1` [Compound 40, (R)—N2-(3,3-Difluoro-1-methylpiperidin-4-yl)-6-fluoro-5-(imidazo[1,2-b]pyridazin-6-yl)pyrrolo[2,1-f][1,2,4]triazine-2,4-diamine], 2.7 nM; under `CC(=O)N1CC[C@@H](Nc2nc(N)c3c(-c4ccc5nnn(CC(F)F)c5n4)c(F)cn3n2)C(F)(F)C1` [Compound 262, (R)-1-(4-((4-Amino-5-(3-(2,2-difluoroethyl)-3H-[1,2,3]triazolo[4,5-b]pyridin-5-yl)-6-fluoropyrrolo[2,1-f][1,2,4]triazin-2-yl)amino)-3,3-difluoropiperidin-1-yl)ethan-1-one], 1.3 nM.

Turning to `CNc1nc(NC2CCN(CC(F)F)CC2)nn2ccc(-c3ccc4nnn(CC(F)F)c4n3)c12` [Compound 270, 5-(3-(2,2-Difluoroethyl)-3H-[1,2,3]triazolo[4,5-b]pyridin-5-yl)-N^2-(1-(2,2-difluoroethyl)piperidin-4-yl)-N^4-methylpyrrolo[2,1-f][1,2,4]triazine-2,4-diamine], the IC50 stood at 1.7 nM. The same measure for `CNc1nc(N[C@H]2CCN(C3COC3)C[C@H]2F)nn2cc(F)c(-c3ccc4nccn4n3)c12` [Compound 54, 6-Fluoro-N^2-((3R,4S)-3-fluoro-1-(oxetan-3-yl)piperidin-4-yl)-5-(imidazo [1,2-b]pyridazin-6-yl)-N^4-methylpyrrolo[2,1-f][1,2,4]triazine-2,4-diamine]: 2.4 nM; for `CC(C)Nc1nc(N[C@H]2CCN(C3COC3)C[C@H]2F)nn2ccc(-c3ccc4nnn(CC(F)F)c4n3)c12` [Compound 411, 5-(3-(2,2-Difluoroethyl)-3H-[1,2,3]triazolo[4,5-b]pyridin-5-yl)-N^2-((3R,4S)-3-fluoro-1-(oxetan-3-yl)piperidin-4-yl)-N^4-isopropylpyrrolo[2,1-f][1,2,4]triazine-2,4-diamine]: 9.7 nM; for `C[C@]1(O)CC[C@H](Nc2nc(N)c3c(-c4ccc5nnn(CC(F)F)c5n4)c(F)cn3n2)CC1` [Compound 257, (1r,4r)-4-((4-Amino-5-(3-(2,2-difluoroethyl)-3H-[1,2,3]triazolo[4,5-b]pyridin-5-yl)-6-fluoropyrrolo[2,1-f][1,2,4]triazin-2-yl)amino)-1-methylcyclohexan-1-ol]: 1.4 nM. `CN1C[C@@H](Nc2nc(N)c3c(-c4ccc5ncn(CC(F)(F)F)c5n4)ccn3n2)C(F)(F)C1` [Compound 124, (R)—N^2-(4,4-Difluoro-1-methylpyrrolidin-3-yl)-5-(3-(2,2,2-trifluoroethyl)-3H-imidazo[4,5-b]pyridin-5-yl)pyrrolo[2,1-f][1,2,4]triazine-2,4-diamine]: the IC50 stood at 1 nM.

As to `CCn1nnc2ccc(-c3c(F)cn4nc(N[C@@H]5CCN(C)CC5(F)F)nc(NC)c34)nc21` [Compound 215, (R)—N^2-(3,3-Difluoro-1-methylpiperidin-4-yl)-5-(3-ethyl-3H-[1,2,3]triazolo [4,5-b]pyridin-5-yl)-6-fluoro-N^4-methylpyrrolo[2,1-f][1,2,4]triazine-2,4-diamine], the IC50 turned out to be 2.3 nM.

As for `FC(F)Cn1nnc2ccc(-c3ccn4nc(N[C@H]5CCN(C6COC6)C[C@H]5F)nc(NC5CC5)c34)nc21` [Compound 419, N^4-Cyclopropyl-5-(3-(2,2-difluoroethyl)-3H-[1,2,3]triazolo[4,5-b]pyridin-5-yl)-N^2-((3R,4S)-3-fluoro-1-(oxetan-3-yl)piperidin-4-yl)pyrrolo[2,1-f][1,2,4]triazine-2,4-diamine], the half-inhibitory concentration (IC50) stood at 8.2 nM.

As for `CN1CC[C@@H](Nc2nc(N)c3c(-c4ccc5nnn(CCF)c5n4)ccn3n2)C(F)(F)C1` [Compound 221, (R)—N^2-(3,3-Difluoro-1-methylpiperidin-4-yl)-5-(3-(2-fluoroethyl)-3H-[1,2,3]triazolo[4,5-b]pyridin-5-yl)pyrrolo[2,1-f][1,2,4]triazine-2,4-diamine], the IC50 amounted to 2.8 nM. Under `CNc1nc(N[C@H]2CCN(C(C)=O)C[C@H]2F)nn2cc(F)c(-c3ccc4nccn4n3)c12` [Compound 53, 1-((3R,4S)-3-Fluoro-4-((6-fluoro-5-(imidazo[1,2-b]pyridazin-6-yl)-4-(methylamino)pyrrolo[2,1-f][1,2,4]triazin-2-yl)amino)piperidin-1-yl)ethan-1-one] stands 2.5 nM; under `CNc1nc(N[C@H]2CCN(C3COC3)C[C@H]2F)nn2ccc(-c3ccc4nc(C)n(C(F)F)c4n3)c12` [Compound 135, 5-(3-(Difluoromethyl)-2-methyl-3H-imidazo[4,5-b]pyridin-5-yl)-N^2-((3R,4S)-3-fluoro-1-(oxetan-3-yl)piperidin-4-yl)-N^4-methylpyrrolo[2,1-f][1,2,4]triazine-2,4-diamine], 6.4 nM. Under `CNc1nc(N[C@H]2CCN(C3COC3)C[C@H]2F)nn2ccc(-c3ccc4nnn(CCCF)c4n3)c12` [Compound 337, N^2-((3R,4S)-3-Fluoro-1-(oxetan-3-yl)piperidin-4-yl)-5-(3-(3-fluoropropyl)-3H-[1,2,3]triazolo[4,5-b]pyridin-5-yl)-N^4-methylpyrrolo[2,1-f][1,2,4]triazine-2,4-diamine] stands 4.4 nM. Under `Nc1nc(N[C@@H]2CCN(C3COC3)CC2(F)F)nn2cc(F)c(-c3ccc4nccn4n3)c12` [Compound 43, (R)—N2-(3,3-Difluoro-1-(oxetan-3-yl)piperidin-4-yl)-6-fluoro-5-(imidazo [1,2-b]pyridazin-6-yl)pyrrolo[2,1-f][1,2,4]triazine-2,4-diamine] stands 3.1 nM. As for `CNc1nc(NC2CCC(F)(F)CC2)nn2ccc(-c3ccc4nnn(CCF)c4n3)c12` [Compound 233, N^2-(4,4-Difluorocyclohexyl)-5-(3-(2-fluoroethyl)-3H-[1,2,3]triazolo[4,5-b]pyridin-5-yl)-N^4-methylpyrrolo[2,1-f][1,2,4]triazine-2,4-diamine], the IC50 was found to be 8.1 nM.

These data come from patent publication US20250340575A1, “4-AMINOPYRROLO[2,1-F][1,2,4]TRIAZINES AND PREPARATION AND USES THEREOF” (Biosplice Therapeutics, Inc., priority 2024, published 2025).
